Data on eleven molecules can be found in US20250346601A1, “HETEROCYCLIC COMPOUNDS FOR THE PREVENTION AND THERAPY OF CIRCADIAN RHYTHM DISORDERS” (UNIVERZITA PALACKEHO V OLOMOUCI, priority 2022, published 2025).

Assay [1] concerns NIH3T3 line transfected with the Per2-Luc reporter. Briefly: Period of the circadian rhythm in NIH3T3 fibroblasts with Per2-Luc reporter (luminescence, cosinor analysis). Type of assay: cell-based, mouse. The note with it: NIH3T3, DMSO control = 1.00. The method, then: NIH3T3 mouse embryonic fibroblasts were grown in standard DMEM with 10% fetal bovine serum. NIH3T3 cells were transfected with 1 μg of Per2-Luc reporter using GeneJuice and selected under hygromycin. The cell line was clonally expanded and a single monoclonal cell line was used for further experiments. Cells were cultured in a 96-well plate in growth medium to 90+% confluence. Test compound or vehicle (DMSO) was applied to recording medium with 100 U/ml penicillin, 100 μg/ml streptomycin, 1x GlutaMAX, 10% fetal calf serum and 0.1 mM Luciferin-EF (Promega Madison, WI, USA). Luminescence was recorded every hour for the next 144 hours. Circadian rhythm analysis was performed using cosinor analysis. Period length was expressed relative to the period of cells affected only by DMSO vehicle (their period length is therefore 1.00).

Assay [2] concerns U2OS line transduced with the Bmal 1-Luc reporter. Briefly: Period of the circadian rhythm in U2OS cells with Bmal1-Luc reporter (luminescence, cosinor analysis). The note with it: U2OS, DMSO control = 1.00. Type of assay: cell-based, Human. The protocol:
Human osteosarcoma U2OS cells were grown in standard DMEM medium with 10% fetal bovine serum. U2OS cells were transduced with lentiviral particles containing a Bmall-Luc fusion reporter and selected under Blasticidin. The cell line was clonally expanded and a single monoclonal cell line was used for further experiments. Cells were cultured in a 384-well plate in growth medium to 90+% confluence. Test compound or vehicle (DMSO) was applied to recording medium with 100 U/ml penicillin, 100 ug/ml streptomycin, 1x GlutaMAX, 10% fetal bovine serum, and 0.1 mM Luciferin-EF. Luminescence was recorded every hour for the next 144 hours. Circadian rhythm analysis was performed using cosinor analysis.
The length of the period was expressed relative to the period of cells affected only by DMSO vehicle (their period is therefore 1.00). […] The overall effect on circadian oscillations unequivocally proves that the compounds of formula I can be also used to temporally modulate the concentration and activity of not only BMAL1, but also other components of the oscillator including the critical components PER2, CRY and CLOCK in time, as these are an essential part of the mechanism generating the rhythmic expression of the luminescent reporter used. The concentration and level of other proteins, whose rhythmic expression is controlled by an oscillator in the brain and peripheral tissues (so-called clock-controlled genes), are also necessarily affected. The influence of the compounds of formula I on the activity of oscillator components and subordinate genes also means influencing the physiological processes of the cell controlled by these genes and proteins. N^6-furfuryladenine was used as a reference compound. […] The ability to shift the phase of the circadian cycle can be seen in FIG. 2.

Each structure is given as a SMILES string.

For `COCCCn1cnc2c(NCc3ccco3)ncnc21` [N-(furan-2-ylmethyl)-9-(3-methoxypropyl)-9H-purin-6-amine, reference compound], in assay [1] (50 μM), the “Period length ± standard error of the mean (expressed relative to the control) at the indicated concentration” value was 50 μM: 0.93 ± 0. Also, the “Period length ± standard error of the mean (expressed relative to control) at the indicated concentration” value in assay [2] (50 μM) is given as 50 μM: 0.99 ± 0.01.
For `CN(CCN)c1nc(NCc2ccco2)c2ncn(C3CCCC3)c2n1` [Compound 16], the “Period length ± standard error of the mean (expressed relative to the control) at the indicated concentration” value in assay [1] (0.83 μM) is on record as 1.05 ± 0.01; in assay [1] (10 μM), 2.02 ± 0.06. The “Period length ± standard error of the mean (expressed relative to control) at the indicated concentration” value in assay [2] (10 μM) was 1.26 ± 0.07; in assay [2] (20 μM), 1.95 ± 0.14.
With `c1coc(CNc2nc(NCc3ccco3)c3ncn(C4CCCCO4)c3n2)c1` (stereo not drawn) [Compound 38], the “Period length ± standard error of the mean (expressed relative to the control) at the indicated concentration” value in assay [1] (50 μM) is 50 μM: 1.22 ± 0.06. In addition, the “Period length ± standard error of the mean (expressed relative to control) at the indicated concentration” value in assay [2] (10 μM) was 10 μM: 1.1 ± 0.02.
For `CN(C)c1nc(NCc2ccco2)c2ncn(C3CCCC3)c2n1` [Compound 15, 9-cyclopentyl-N^6-(furan-2-ylmethyl)-N^2,N^2-dimethyl-9H-purine-2,6-diamine], the “Period length ± standard error of the mean (expressed relative to the control) at the indicated concentration” value in assay [1] (0.83 μM) came out at 1.08 ± 0.05; in assay [1] (50 μM) it was 1.56 ± 0.07. Besides, the figures for the “Period length ± standard error of the mean (expressed relative to control) at the indicated concentration” value in assay [2] (1 μM) and in assay [2] (4 μM) were 1.05 ± 0.01 and 1.15 ± 0.01, respectively.
For the molecule `CNc1nc(NCc2ccco2)c2ncn(C3CCCO3)c2n1` (stereo not drawn) [Compound 22], the “Period length ± standard error of the mean (expressed relative to the control) at the indicated concentration” value in assay [1] (50 μM) is reported as 50 μM: 1.22 ± 0.02. For the same molecule, the “Period length ± standard error of the mean (expressed relative to control) at the indicated concentration” value in assay [2] (10 μM) is listed as 10 μM: 1.06 ± 0.
Consider `Clc1nc(NCc2ccco2)c2ncn(C3CCOCC3)c2n1` [Compound 10], for which, in assay [1] (10 μM), the “Period length ± standard error of the mean (expressed relative to the control) at the indicated concentration” value is on record as 10 μM: 1.14 ± 0.01. The “Period length ± standard error of the mean (expressed relative to control) at the indicated concentration” value in assay [2] (10 μM) is reported as 10 μM: 1.09 ± 0.01.
In the case of `CNc1nc(NCc2ccco2)c2ncn(C3CCCCO3)c2n1` (stereo not drawn) [Compound 33], the “Period length ± standard error of the mean (expressed relative to the control) at the indicated concentration” value in assay [1] (50 μM) is reported as 50 μM: 1.18 ± 0.02. The “Period length ± standard error of the mean (expressed relative to control) at the indicated concentration” value in assay [2] (5 μM) is 5 μM: 1.04 ± 0.
Regarding `COCCCCn1cnc2c(NCc3ccco3)ncnc21` [N-(furan-2-ylmethyl)-9-(4-methoxybutyl)-9H-purin-6-amine, reference compound], the “Period length ± standard error of the mean (expressed relative to the control) at the indicated concentration” value in assay [1] (50 μM) was 50 μM: 0.97 ± 0.03. In addition, the “Period length ± standard error of the mean (expressed relative to control) at the indicated concentration” value in assay [2] (50 μM) is recorded as 50 μM: 1 ± 0.01.
Take `CCOCCn1cnc2c(NCc3ccco3)ncnc21` [9-(2-ethoxyethyl)-N-(furan-2-ylmethyl)-9H-purin-6-amine, reference compound]: the “Period length ± standard error of the mean (expressed relative to the control) at the indicated concentration” value in assay [1] (50 μM) is 50 μM: 0.97 ± 0.03. Moreover, in assay [2] (50 μM), the “Period length ± standard error of the mean (expressed relative to control) at the indicated concentration” value is reported as 50 μM: 0.99 ± 0.01.
On to `CNc1nc(NCc2ccc(C)o2)c2ncn(C3CCCCO3)c2n1` (stereo not drawn) [Compound 50], for which the “Period length ± standard error of the mean (expressed relative to the control) at the indicated concentration” value in assay [1] (50 μM) is reported as 50 μM: 1.6 ± 0.02. Besides, the “Period length ± standard error of the mean (expressed relative to control) at the indicated concentration” value in assay [2] (10 μM) came out at 1.11 ± 0.01; in assay [2] (20 μM) it was 1.14 ± 0.02.
`COCCCNc1nc(NCc2ccco2)c2ncn(C3CCCCO3)c2n1` (stereo not drawn) [Compound 46]: the “Period length ± standard error of the mean (expressed relative to the control) at the indicated concentration” value in assay [1] (50 μM) is listed as 50 μM: 1.27 ± 0.04. Further, in assay [2] (20 μM), the “Period length ± standard error of the mean (expressed relative to control) at the indicated concentration” value is 20 μM: 1.05 ± 0.01.
